Results: patent publication US20140221468A1, “Compounds that Modulate Store Operated Calcium Channels” (The Board of Trustees of the Leland Stanford Junior …, priority 2010, published 2014)

What was measured:
SOC [1] = assay: Fura2-AM calcium imaging in HEK293 cells; assay type: cell-based; conditions: for effect on intracellular calcium levels, post SOC activation treatment: applied after ER store depletion, at minute 510 of imaging
Procedure: Calcium imaging was utilized for further characterization of the compounds and analogs. Using Fura2-AM, a known ratiometric calcium indicator, SOC dependent intracellular calcium rise and lack thereof was measured after treatment of our compounds (FIG. 3A-B). […] 1 minute before treatment of Thapsigargin.
This observation was in line with the previous luciferase assays and confirmed the ability of these compounds to inhibit SOC.
LaCl, a general blocker of divalent channels, was also used as a comparison for the post treatment experiment. […] HEK293 cells were treated with DMSO (black), LaCl at 1 uM (red), AnCoA4 at 50 uM (orange), and BiochaninA at 50 uM (green) at minute 510 of the calcium imaging. The intracellular calcium levels quickly drop after LaCl treatment whereas the compound treatment had no effect on the calcium levels.imaging.

SOC [2] = assay: NFAT coupled luciferase assay (NFAT-luc) for functional inhibition of SOC; assay type: cell-based; conditions: Jurkat T cells pretreated 30 minutes, activated by thapsigargin (TG) and PMA; read-out: EC50, NFAT-luc assay dose response
Procedure: To evaluate the ability of these compounds to inhibit SOC, a NFAT coupled luciferase assay was utilized as a functional secondary screen (FIG. 2A). This assay allows the monitoring of the IL2 promoter dependent production of luciferase that is directly activated by SOC through dephosphorylation of NFAT in T lymphocytes. This assay requires treatment of PMA, a PKC agonist, in parallel with SOC activation. Jurkat T cells were pretreated with each of the 51 compounds for 30 minutes and then activated by treatment of thapsigargin (TG) and PMA. TG depletes the ER stores by inhibiting the SERCA pumps that are responsible for refilling these stores with calcium. This process in turn activates SOC currents.
Fifty one compounds identified in the binding assay were tested by NFAT-luc assay to evaluated their SOC inhibitory properties (top). Renilla-luc was also monitored as an internal control of viability of the cells (bottom).
To further examine the hits produced from the secondary luciferase screen, four compounds AnCoA4, AnCoA5, AnCoG4, and AnCoF6 were selected (FIGS. 2B, C, D). The Dose response curve calculated from FIG. 2B is shown in FIG. 2C with a calculated EC50 equal to 0.9 μM.

jurkat T lymphocytes = assay: qRT PCR of T and B lymphocyte activating genes in jurkat T lymphocytes; assay type: cell-based, human
Procedure: The ability of AnCoA4 to inhibit activation of jurkat T lymphocytes was investigated (FIG. 4A). As IL2 gene production was previously investigated indirectly using a luciferase assay, the production of 83 more genes was monitored using real time quantitative PCR (qRT PCR). […] Jurkat T cells were treated with DMSO and AnCoA4 30 minutes before activation with PHA. Total RNA was extracted after 4 hours. […] Cells were pretreated with AnCoA4 30 minutes before activation with PHA or thapsigargin plus PMA for various time length of activation.
The ability of the AnCoA4 alone for independent up regulation of IL2 gene was also tested and no effects were observed.

[3] = 50 uM pretreatment for 30 minutes, then PHA activation, qRT PCR

Structure (SMILES)	effect on intracellular calcium levels, post SOC activation treatment (SOC [1]; 50 uM)	effect on intracellular calcium levels, post SOC activation treatment (SOC [1]; 1 uM)	EC50 (SOC [2]) [µM]	SOC dependent intracellular calcium influx, pretreatment (SOC [1]; 50 uM, 1 minute before thapsigargin)	CCL4 down regulation (jurkat T lymphocytes; [3]) [folds]	IL2 down regulation (jurkat T lymphocytes; [3])	mRNA levels for most genes in comparison with the control sample (jurkat T lymphocytes; 84 genes, 50 uM pretreatment for 30 minutes, then PHA activation)	independent up regulation of IL2 gene by compound alone (jurkat T lymphocytes; compound alone, without activation)
COc1ccc(-c2coc3cc(O)cc(O)c3c2=O)cc1 [BiochaninA]	no effect	–	–	–	–	–	–	–
[Cl][La]([Cl])[Cl] [LaCl, reference compound]	–	quickly drop	–	–	–	–	–	–
COc1cc2c(cc1-c1coc3c4c(ccc3c1=O)OC(C)(C)C=C4)OCO2 [AnCoA4]	no effect	–	0.9	significantly reduced	~180	about 6 folds	significantly lower	no effects
